Experimental data reported in PubChem BioAssay AID248 (DTP/NCI, 2004).
Values joined by “and” are separate entries in the source; they are usually repeats but may differ in a detail not shown here. Equal entries are not always repeated. Inconclusive results and toxic doses are left out. Cut-off read from the data, not from the text of the source: active = T/C of 150% or more; inactive = T/C below 125%.

System: L1210 leukemia ip in BDF1 mice, survival T/C
Assay: NCI In Vivo Anticancer Drug Screen. Data for tumor model L1210 Leukemia (intraperitoneal) in B6D2F1 (BDF1) mice
Details: endpoint: mean survival time, higher = longer survival
In short: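 Read-out is survival time, reported as the treated-group measurement over the vehicle-control measurement.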

[1] = dose: 100.0 mg/kg/injection, schedule: Q01DX001 (ip), vehicle: Klucel (hydroxypropylcellulose) (HPC)
[2] = dose: 200.0 mg/kg/injection, schedule: Q01DX001 (ip), vehicle: Klucel (hydroxypropylcellulose) (HPC)
[3] = dose: 100.0 mg/kg/injection, schedule: Q04DX003 (ip), vehicle: Klucel (hydroxypropylcellulose) (HPC)
[4] = dose: 200.0 mg/kg/injection, schedule: Q04DX003 (ip), vehicle: Klucel (hydroxypropylcellulose) (HPC)
[5] = dose: 25.0 mg/kg/injection, schedule: Q01DX009 (ip), vehicle: saline
[6] = dose: 50.0 mg/kg/injection, schedule: Q01DX009 (ip), vehicle: saline
[7] = dose: 100.0 mg/kg/injection, schedule: Q01DX009 (ip), vehicle: saline
[8] = dose: 200.0 mg/kg/injection, schedule: Q01DX009 (ip), vehicle: saline
[9] = dose: 100.0 mg/kg/injection, schedule: Q01DX009 (ip), vehicle: Klucel (hydroxypropylcellulose) (HPC)
[10] = dose: 200.0 mg/kg/injection, schedule: Q01DX009 (ip), vehicle: Klucel (hydroxypropylcellulose) (HPC)

Measured: T/C

CC(C)NC(=O)NC(C)C
inactive: [1] 100 % of control | [2] 96 % of control | dose: 400.0 mg/kg/injection, schedule: Q01DX001 (ip), vehicle: Klucel (hydroxypropylcellulose) (HPC) 94 % of control

CCOC(=O)c1nc(N)nc(N)c1Oc1ccccc1
inactive: dose: 50.0 mg/kg/injection, schedule: Q01DX001 (ip), vehicle: Klucel (hydroxypropylcellulose) (HPC) 92 % of control | [1] 93 % of control | [2] 92 % of control

OC(c1ccccc1)c1cccc(Br)c1 (stereo unspecified)
inactive: dose: 100.0 mg/kg/injection, schedule: Q01DX009 (ip), vehicle: acetone 104 % of control | dose: 100.0 mg/kg/injection, schedule: Q04DX003 (ip), vehicle: saline 96 % of control | dose: 200.0 mg/kg/injection, schedule: Q01DX009 (ip), vehicle: acetone 107 % of control | dose: 200.0 mg/kg/injection, schedule: Q04DX003 (ip), vehicle: saline 105 % of control | dose: 400.0 mg/kg/injection, schedule: Q01DX009 (ip), vehicle: acetone 100 % of control | dose: 400.0 mg/kg/injection, schedule: Q04DX003 (ip), vehicle: saline 89 % of control

COc1ccc(C(=O)NCCBr)cc1[N+](=O)[O-]
inactive: dose: 100.0 mg/kg/injection, schedule: Q01DX001 (ip), vehicle: saline 108 % of control | [3] 97 % of control | dose: 200.0 mg/kg/injection, schedule: Q01DX001 (ip), vehicle: saline 103 % of control | [4] 101 % of control | dose: 400.0 mg/kg/injection, schedule: Q01DX001 (ip), vehicle: saline 98 % of control | dose: 400.0 mg/kg/injection, schedule: Q04DX003 (ip), vehicle: Klucel (hydroxypropylcellulose) (HPC) 111 % of control

COCc1ncc2cnccn12
inactive: [5] 90 % of control | [6] 103 % of control | [7] 98 % of control and 103 % of control and 91 % of control | [8] 93 % of control

[O-][n+]1c(C(Br)(Br)Br)ccc2ccccc21
inactive: dose: 50.0 mg/kg/injection, schedule: Q01DX009 (ip), vehicle: Klucel (hydroxypropylcellulose) (HPC) 97 % of control | [9] 95 % of control | [10] 106 % of control

CCS(=O)(=O)/C=C/c1cccs1
inactive: [9] 104 % of control | [10] 100 % of control

CC(C)(O)CNC(=O)c1cccc([N+](=O)[O-])c1
inactive: [3] 94 % of control | [4] 88 % of control

CCN(CC)CC(=O)NCC(CCN1CCCCC1)(CC(C)C)c1cccc2ccccc12 (stereo unspecified)
inactive: [5] 102 % of control | [6] 105 % of control | [7] 114 % of control

C#CC[As+](c1ccccc1)(c1ccccc1)c1ccccc1
inactive: dose: 6.25 mg/kg/injection, schedule: Q01DX009 (ip), vehicle: Klucel (hydroxypropylcellulose) (HPC) 103 % of control | dose: 12.5 mg/kg/injection, schedule: Q04DX003 (ip), vehicle: Klucel (hydroxypropylcellulose) (HPC) 102 % of control

NC(=O)NNC1OCC(O)C(O)C1O (stereo unspecified)
inactive: [7] 90 % of control | dose: 100.0 mg/kg/injection, schedule: Q04DX003 (ip), vehicle: water 96 % of control | [8] 95 % of control | dose: 200.0 mg/kg/injection, schedule: Q04DX003 (ip), vehicle: water 96 % of control | dose: 400.0 mg/kg/injection, schedule: Q01DX009 (ip), vehicle: saline 97 % of control | dose: 400.0 mg/kg/injection, schedule: Q04DX003 (ip), vehicle: water 97 % of control

O=c1[nH]cnc2n[nH]nc12
inactive: dose: 176.0 mg/kg/injection, schedule: Q01DX009 (ip), vehicle: other 113 % of control | dose: 264.0 mg/kg/injection, schedule: Q01DX009 (ip), vehicle: other 117 % of control | dose: 400.0 mg/kg/injection, schedule: Q01DX009 (ip), vehicle: other 124 % of control

NCCCS
inactive: dose: 75.0 mg/kg/injection, schedule: Q01DX001 (ip), vehicle: saline 96 % of control | dose: 150.0 mg/kg/injection, schedule: Q01DX001 (ip), vehicle: saline 96 % of control

Cc1cc(=O)[nH]c(N/N=C/c2ccc(N(CCCl)CCCl)cc2)n1
inactive: dose: 100.0 mg/kg/injection, schedule: Q04DX003 (ip), vehicle: saline with Tween-80 102 % of control | dose: 200.0 mg/kg/injection, schedule: Q04DX003 (ip), vehicle: saline with Tween-80 105 % of control | dose: 400.0 mg/kg/injection, schedule: Q04DX003 (ip), vehicle: saline with Tween-80 109 % of control

NC(=O)N(CCc1ccccc1)N=O
inactive: dose: 6.25 mg/kg/injection, schedule: Q01DX Z (ip), vehicle: carboxymethylcellulose (CMC) 98 % of control | dose: 12.5 mg/kg/injection, schedule: Q01DX Z (ip), vehicle: carboxymethylcellulose (CMC) 109 % of control | dose: 25.0 mg/kg/injection, schedule: Q01DX Z (ip), vehicle: carboxymethylcellulose (CMC) 98 % of control | dose: 50.0 mg/kg/injection, schedule: Q01DX Z (ip), vehicle: carboxymethylcellulose (CMC) 118 % of control | dose: 75.0 mg/kg/injection, schedule: Q01DX Z (ip), vehicle: carboxymethylcellulose (CMC) 103 % of control | dose: 100.0 mg/kg/injection, schedule: Q01DX Z (ip), vehicle: carboxymethylcellulose (CMC) 114 % of control | dose: 150.0 mg/kg/injection, schedule: Q01DX Z (ip), vehicle: carboxymethylcellulose (CMC) 120 % of control | dose: 200.0 mg/kg/injection, schedule: Q01DX Z (ip), vehicle: carboxymethylcellulose (CMC) 111 % of control
